Measured values reported in patent publication US9695462B2, “Method for evaluation of drug efficacy of a medicine having a therapeutic or preventive effect against a disease related to EL activity and a method for screening an inhibitor of EL activity” (SHIONOGI & CO., LTD., priority 2012, dated 2017).

Target: T1, mouse EL (Mus musculus, UniProt Q9WVG5)
T1 construct: made in house; host or cells: Freestyle 293F cells (pcDNA-DEST40 vector)
T1 sequence (Q9WVG5 21-500): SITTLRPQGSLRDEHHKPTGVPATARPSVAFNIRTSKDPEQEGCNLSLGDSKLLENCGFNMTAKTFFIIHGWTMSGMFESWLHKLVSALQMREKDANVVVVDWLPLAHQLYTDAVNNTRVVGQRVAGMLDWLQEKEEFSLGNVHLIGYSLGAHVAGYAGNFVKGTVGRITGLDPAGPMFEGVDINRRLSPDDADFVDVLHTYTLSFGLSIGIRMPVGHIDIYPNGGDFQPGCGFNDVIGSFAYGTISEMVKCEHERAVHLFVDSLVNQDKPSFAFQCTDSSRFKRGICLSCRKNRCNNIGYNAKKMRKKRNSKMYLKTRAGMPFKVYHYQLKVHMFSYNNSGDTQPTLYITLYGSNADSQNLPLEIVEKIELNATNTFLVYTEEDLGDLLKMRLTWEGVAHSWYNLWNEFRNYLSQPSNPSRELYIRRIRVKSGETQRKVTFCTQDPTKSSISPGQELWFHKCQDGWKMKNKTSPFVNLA
Experiment: Inhibition of mouse EL activity using phosphatidylinositol-HDL as a substrate (NEFA production)
Type: biochemical
Conditions: 37° C. for 2 hr, FIG. 5
Description: Phosphatidylinositol (Avanti Polar Lipids Inc.) in chloroform was collected the necessary amount, which was completely evaporated the solvent to dryness under nitrogen. After addition of PBS, phosphatidylinositol-HDL induced phosphatidylinositol (2.5 mg/ml) into HDL (5 mg/ml) was prepared by mixing phosphatidylinositol vesicle prepared by sonication on ice with human HDL (Athens Research & Technology, Inc.) and incubating at 4° C. for 24 hr. The pcDNA-DEST40 (Invitrogen Corp.) cloned DNA encoding mouse EL was transfected into Freestyle 293F cells and the cells were cultured at 37° C. for 2 days in an atmosphere of 8% CO2. The cells were collected by centrifugation of the culture medium, suspended in Freestyle 293 Expression Medium (Invitrogen Corp.) containing 20 U/ml heparin and incubated at 37° C. for 45 min. After that, the supernatant obtained by removing the cells by centrifugation was used as mouse EL enzyme solution. […] After reaction at 37° C. for 2 hr, the amount of NEFA produced from substrate by EL was measured with NEFA C-test Wako (Wako Pure Chemical Industries, Ltd.) and the amount of NEFA (absorbance) was assumed an index of enzyme activity. The enzyme activity was calculated by subtracting the background value equivalent to the amount of endogenous NEFA without mouse EL enzyme solution from the value measured in enzyme reaction of EL (FIG. 4).

inhibitory activity against mouse EL (inhibition rate): dose-dependent inhibition
Structure (SMILES): CCCCCCCCCCC[C@@H](C[C@@H]1OC(=O)[C@H]1CCCCCC)OC(=O)[C@H](CC(C)C)NC=O [orlistat]
